Where two headings read alike, the source gives them in different places.
How the values were obtained:
Assay in all cases: SelectScreen Kinase Profiling, single point inhibition and IC50 for off-target kinases
Format in all cases: biochemical
[1] = target: off-target kinases (Homo sapiens, UniProt Q9HC98); details: NEK6, ZLYTE, ATP Km app
[2] = target: off-target kinases (Homo sapiens, UniProt P15056, V600E); details: BRAF V599E
[3] = target: off-target kinases (Homo sapiens, UniProt Q15375); details: EPHA7, LanthaScreen Binding
Chain of off-target kinases (Homo sapiens, UniProt Q15375) (Q15375 28-998): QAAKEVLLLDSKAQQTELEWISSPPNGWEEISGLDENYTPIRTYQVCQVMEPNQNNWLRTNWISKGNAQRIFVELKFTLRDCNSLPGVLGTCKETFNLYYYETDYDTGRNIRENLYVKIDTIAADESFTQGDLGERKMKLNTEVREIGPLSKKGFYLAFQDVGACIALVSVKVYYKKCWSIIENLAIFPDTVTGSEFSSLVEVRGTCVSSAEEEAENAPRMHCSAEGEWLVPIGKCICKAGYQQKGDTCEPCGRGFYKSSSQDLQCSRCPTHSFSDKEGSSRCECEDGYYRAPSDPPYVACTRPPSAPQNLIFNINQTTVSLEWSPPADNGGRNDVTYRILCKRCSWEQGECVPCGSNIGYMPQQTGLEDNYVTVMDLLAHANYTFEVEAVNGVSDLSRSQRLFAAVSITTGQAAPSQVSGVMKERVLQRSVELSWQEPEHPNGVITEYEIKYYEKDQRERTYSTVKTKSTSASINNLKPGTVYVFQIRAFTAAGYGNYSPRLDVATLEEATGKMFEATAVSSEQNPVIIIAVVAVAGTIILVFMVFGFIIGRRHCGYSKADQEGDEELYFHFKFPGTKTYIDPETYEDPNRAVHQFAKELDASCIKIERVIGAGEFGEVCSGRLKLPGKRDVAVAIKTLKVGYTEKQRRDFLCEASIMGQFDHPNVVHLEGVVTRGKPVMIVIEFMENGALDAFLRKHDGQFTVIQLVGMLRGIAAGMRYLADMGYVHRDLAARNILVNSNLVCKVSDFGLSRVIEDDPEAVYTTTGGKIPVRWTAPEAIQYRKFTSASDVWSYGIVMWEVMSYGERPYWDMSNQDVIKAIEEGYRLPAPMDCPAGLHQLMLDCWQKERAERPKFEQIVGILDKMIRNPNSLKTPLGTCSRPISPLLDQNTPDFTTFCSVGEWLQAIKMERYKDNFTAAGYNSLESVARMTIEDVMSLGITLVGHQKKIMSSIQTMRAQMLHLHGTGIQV

[4] = target: off-target kinases (Homo sapiens, UniProt Q86UX6)
Chain of off-target kinases (Homo sapiens, UniProt Q86UX6) (Q86UX6 whole entry): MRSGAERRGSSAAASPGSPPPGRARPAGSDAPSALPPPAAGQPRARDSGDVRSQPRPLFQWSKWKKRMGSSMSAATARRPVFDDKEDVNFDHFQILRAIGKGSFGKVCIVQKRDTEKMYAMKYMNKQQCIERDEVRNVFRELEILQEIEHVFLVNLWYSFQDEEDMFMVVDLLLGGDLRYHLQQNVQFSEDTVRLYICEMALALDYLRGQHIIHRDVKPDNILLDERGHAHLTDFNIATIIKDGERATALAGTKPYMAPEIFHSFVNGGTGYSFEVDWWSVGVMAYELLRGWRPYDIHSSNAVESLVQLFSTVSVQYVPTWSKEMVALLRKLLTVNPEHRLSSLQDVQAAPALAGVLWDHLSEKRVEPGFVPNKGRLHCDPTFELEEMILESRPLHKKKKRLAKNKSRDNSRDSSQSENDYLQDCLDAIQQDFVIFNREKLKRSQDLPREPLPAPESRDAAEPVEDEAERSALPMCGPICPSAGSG

[5] = target: T1, off-target kinases (Homo sapiens, UniProt Q15835); details: GRK1, LanthaScreen Binding
T1 sequence (Q15835 1-563): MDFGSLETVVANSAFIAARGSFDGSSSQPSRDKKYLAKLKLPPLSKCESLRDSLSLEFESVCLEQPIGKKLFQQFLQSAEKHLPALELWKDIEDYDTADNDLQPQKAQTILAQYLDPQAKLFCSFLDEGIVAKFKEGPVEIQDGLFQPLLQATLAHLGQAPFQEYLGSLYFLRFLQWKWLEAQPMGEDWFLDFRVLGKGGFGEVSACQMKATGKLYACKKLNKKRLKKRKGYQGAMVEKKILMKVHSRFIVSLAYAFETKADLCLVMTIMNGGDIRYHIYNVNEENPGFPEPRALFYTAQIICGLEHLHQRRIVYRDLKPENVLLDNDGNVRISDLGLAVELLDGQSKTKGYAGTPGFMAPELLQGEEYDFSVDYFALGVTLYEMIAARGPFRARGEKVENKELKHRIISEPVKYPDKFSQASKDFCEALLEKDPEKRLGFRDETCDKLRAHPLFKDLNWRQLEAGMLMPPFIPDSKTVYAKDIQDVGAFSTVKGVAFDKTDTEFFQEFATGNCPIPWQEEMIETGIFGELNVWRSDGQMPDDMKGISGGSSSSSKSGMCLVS

Chain of off-target kinases (Homo sapiens, UniProt Q9HC98) (Q9HC98 whole entry): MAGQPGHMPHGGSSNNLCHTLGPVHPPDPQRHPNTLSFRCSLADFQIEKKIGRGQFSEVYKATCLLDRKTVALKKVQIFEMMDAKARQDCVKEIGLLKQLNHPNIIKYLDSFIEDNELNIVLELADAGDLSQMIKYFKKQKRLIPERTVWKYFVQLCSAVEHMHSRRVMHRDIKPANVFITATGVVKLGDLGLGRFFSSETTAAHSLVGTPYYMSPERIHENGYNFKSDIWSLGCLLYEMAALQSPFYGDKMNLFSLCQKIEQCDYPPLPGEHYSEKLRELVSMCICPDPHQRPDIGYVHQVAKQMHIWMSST
Chain of off-target kinases (Homo sapiens, UniProt P15056, V600E) (P15056 whole entry V600E): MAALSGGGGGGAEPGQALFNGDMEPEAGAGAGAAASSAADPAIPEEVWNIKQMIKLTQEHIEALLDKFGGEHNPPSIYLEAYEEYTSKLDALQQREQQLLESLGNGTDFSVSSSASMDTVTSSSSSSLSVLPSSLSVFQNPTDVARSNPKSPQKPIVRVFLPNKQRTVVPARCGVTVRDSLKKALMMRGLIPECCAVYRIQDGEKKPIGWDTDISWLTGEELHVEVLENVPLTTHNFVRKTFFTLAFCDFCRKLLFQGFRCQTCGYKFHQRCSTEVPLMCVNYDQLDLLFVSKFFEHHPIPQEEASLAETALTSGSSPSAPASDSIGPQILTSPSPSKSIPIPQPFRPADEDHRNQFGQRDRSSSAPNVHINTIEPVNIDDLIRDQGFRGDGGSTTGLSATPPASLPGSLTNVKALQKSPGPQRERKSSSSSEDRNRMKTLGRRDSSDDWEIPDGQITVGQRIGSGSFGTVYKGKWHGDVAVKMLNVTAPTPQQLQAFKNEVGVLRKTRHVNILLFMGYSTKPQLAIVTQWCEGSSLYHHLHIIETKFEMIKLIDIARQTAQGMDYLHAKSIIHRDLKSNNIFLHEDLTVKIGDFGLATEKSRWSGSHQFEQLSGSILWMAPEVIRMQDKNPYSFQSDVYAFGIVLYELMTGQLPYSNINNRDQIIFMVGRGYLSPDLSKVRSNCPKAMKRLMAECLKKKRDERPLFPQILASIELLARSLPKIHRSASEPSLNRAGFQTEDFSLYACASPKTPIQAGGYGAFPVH

In the case of `N#Cc1cc(-c2ncnc(Nc3ccc(N4CCN(C5COC5)CC4)cc3)n2)ccc1OC1CCOCC1` [Compound 1, 5-(4-((4-(4-(oxetan-3-yl)piperazin-1-yl)phenyl)amino)-1,3,5-triazin-2-yl)-2-((tetrahydro-2H-pyran-4-yl)oxy)benzonitrile], the inhibition ([1]; read-out: % Inhibition 1) is reported as 12%, the inhibition ([1]; read-out: % Inhibition 2) is reported as 6% and the inhibition ([1]; read-out: % Inhibition Avg) is reported as 9%. The inhibition ([2]; ATP 100, ZLYTE, read-out: % Inhibition 1) was 63%, the inhibition ([2]; ATP 100, ZLYTE, read-out: % Inhibition 2) was 61% and the inhibition ([2]; ATP 100, ZLYTE, read-out: % Inhibition Avg) was 62%. For the same compound, the inhibition ([2]; LanthaScreen Binding, read-out: % Inhibition 1) was 50%, the inhibition ([2]; LanthaScreen Binding, read-out: % Inhibition 2) was 53% and the inhibition ([2]; LanthaScreen Binding, read-out: % Inhibition Avg) was 52%. For the same compound, the inhibition ([3]; read-out: % Inhibition 1) was 10%, the inhibition ([3]; read-out: % Inhibition 2) was 12% and the inhibition ([3]; read-out: % Inhibition Avg) was 11%. It also gave an inhibition ([4]; STK32C (YANK3), LanthaScreen Binding, read-out: % Inhibition 1) of -4%, an inhibition ([4]; STK32C (YANK3), LanthaScreen Binding, read-out: % Inhibition 2) of 3% and an inhibition ([4]; read-out: % Inhibition Avg) of -1%. For the same compound, the inhibition ([5]; read-out: % Inhibition 1) was 7%, the inhibition ([5]; read-out: % Inhibition 2) was 2% and the inhibition ([5]; read-out: % Inhibition Avg) was 5%.

Source: US11572590B2, “Methods for evaluating tumor cell spheroids using 3D microfluidic cell culture device” (Dana-Farber Cancer Institute, Inc., priority 2017, dated 2023)
